Source: patent publication US20240199618A1, “NOVEL N-ACYL-[3-SUBSTITUTED]-[8-SUBSTITUTED]-5,6-DIHYDRO-[1,2,4]TRIAZOLO[4,3-a]PYRAZINES AS SELECTIVE NK-3 RECEPTOR ANTAGONISTS, PHARMACEUTICAL COMPOSITION, METHODS FOR USE IN NK-3 RECEPTOR-MEDIATED DISORDERS” (Ogeda SA, priority 2013, published 2024)
pIC50, pKi: −log10 of the molar value. Where two headings read alike, the source gives them in different places.

Legend:
human NK-3 receptor [1] = molecular target: T1, human NK-3 receptor (Homo sapiens (Human), UniProt P29371); experiment: Aequorin functional assay with human NK-3 receptor (antagonist testing vs NKA); format: cell-based; conditions: CHO cells, NKA at EC80 (3 nM); read-out: Functional assay: Aequorin assay with human NK-3 receptor hNK-3-AEQ (antagonist IC50)
Procedure: Aequorin Assay with Human NK-3 Receptor
Changes in intracellular calcium levels are a recognized indicator of G protein-coupled receptor activity. The efficacy of compounds of the invention to inhibit NKA-mediated NK-3 receptor activation was assessed by an in vitro Aequorin functional assay. Chinese Hamster Ovary recombinant cells expressing the human NK-3 receptor and a construct that encodes the photoprotein apoaequorin were used for this assay. In the presence of the cofactor coelenterazine, apoaequorin emits a measurable luminescence that is proportional to the amount of intracellular (cytoplasmic) free calcium.
The antagonist activity of compounds of the invention is measured following pre-incubation (3 minutes) of the compound (at various concentrations) with the cells, followed by addition of the reference agonist (NKA) at a final concentration equivalent to the EC80 (3 nM) and recording of emitted light (FDSS 6000 Hamamatsu) over the subsequent 90-second period. The intensity of the emitted light is integrated using the reader software. Compound antagonist activity is measured based on the concentration-dependent inhibition of the luminescence response to the addition of Neurokinin A.

human NK-3 receptor [2] = molecular target: T1, human NK-3 receptor; experiment: 3H-SB222200 binding competition assay with human NK-3 receptor
Procedure: The affinity of compounds of the invention for the human NK-3 receptor was determined by measuring the ability of compounds of the invention to competitively and reversibly displace a well-characterized NK-3 radioligand in a concentration-dependent manner.
^3H-SB222200 Binding Competition Assay with Human NK-3 Receptor
Membranes were prepared from Chinese hamster ovary recombinant cells stably expressing the human NK-3 receptor. The membranes were incubated with 5 nM ^3H-SB222200 (ARC) in a HEPES 25 mM/NaCl 0.1M/CaCl2 1 mM/MgCl2 5 mM/BSA 0.5%/Saponin 10 μg/ml buffer at pH 7.4 and various concentrations of compounds of the invention. The amount of ^3H-SB222200 bound to the receptor was determined after filtration by the quantification of membrane associated radioactivity using the TopCount-NXT reader (Packard).

human NK-1 receptor = human NK-1 receptor (Homo sapiens (Human), UniProt P25103); experiment: Selectivity assay: [3H] substance P binding, human NK-1 receptor; conditions: 2 nM [3H] substance P, CHO membranes; read-out: hNK-1 (Ki)
Procedure: Selectivity of the compounds of the invention was determined over the other human NK receptors, namely NK-1 and NK-2 receptors.
The affinity of compounds of the invention for the NK-1 receptor was evaluated in CHO recombinant cells which express the human NK-1 receptor. Membrane suspensions were prepared from these cells. The following radioligand: [^3H] substance P (PerkinElmer Cat #NET111520) was used in this assay. Binding assays were performed in a 50 mM Tris/5 mM MnCl2/150 mM NaCl/0.1% BSA at pH 7.4. Binding assays consisted of 25 μl of membrane suspension (approximately 5 μg of protein/well in a 96 well plate), 50 μl of compound or reference ligand (Substance P) at increasing concentrations (diluted in assay buffer) and 2 nM [^3H] substance P. The plate was incubated 60 min at 25° C. in a water bath and then filtered over GF/C filters (Perkin Elmer, 6005174, presoaked in 0.5% PEI for 2 h at room temperature) with a Filtration unit (Perkin Elmer). The radioactivity retained on the filters was measured by using the TopCount-NXT reader (Packard).

human NK-2 receptor = human NK-2 receptor (Homo sapiens (Human), UniProt P21452); experiment: Selectivity assay: [125I]-Neurokinin A binding, human NK-2 receptor; conditions: 0.1 nM [125I]-Neurokinin A, CHO membranes; read-out: hNK-2 (Ki)
Procedure: The affinity of compounds of the invention for the NK-2 receptor was evaluated in CHO recombinant cells which express the human NK-2 receptor. Membrane suspensions were prepared from these cells. […] Binding assays were performed in a 25 mM HEPES/1 mM CaCl2)/5 mM MgCl2/0.5% BSA/10 μg/ml saponin, at pH 7.4. […] The radioactivity retained on the filters was measured by using the TopCount-NXT reader (Packard).

plasma protein = experiment: Determination of plasma protein binding (equilibrium dialysis, RED); format: in vitro ADME; conditions: 4 hours at 37° C.
Excerpt: Determination of plasma protein binding The pharmacokinetic and pharmacodynamic properties of chemicals/drugs are largely a function of the reversible binding of chemicals to plasma or serum proteins. […] Consequently, the extent of the plasma protein binding (PPB) of a compound influences its action as well as its distribution and elimination.
The determination of plasma protein binding (PPB) of a compound is enabled by equilibrium dialysis, an accepted and standard method for reliable estimation of the non-bound drug fraction in plasma. RED (Rapid Equilibrium Dialysis) device insert is made of two side-by-side chambers separated by an O-ring-sealed vertical cylinder of dialysis membrane (MWCO ˜8,000). […] After 4 hours incubation at 37° C. under shaking, an aliquot is removed from each chamber and analyzed by a LC-MS/MS procedure enables the determination of both free and bound drug.
The “free fraction” may be calculated as 100%−% rPPB (i.e. the complementary percentage of that disclosed in Table 4, corresponding to the drug concentration that is unbound and therefore available to engage biological target and elicit pharmacological activity).

[3] = tested on: circulating levels of luteinizing hormone (LH); experiment: Castrated male rat model, circulating luteinizing hormone (LH); format: in vivo; conditions: single oral dose less than or equal to 30 mg/kg, p<0.05
Procedure: Castrated Male Rat Model to Assess the Effect of Compound of Invention on Circulating Levels of Luteinizing Hormone (LH)
The effect of compounds of the invention to inhibit luteinizing hormone (LH) secretion is determined by the following biological studies.
In humans and rodents, castration is well-precedented to permit heightened, persistent GnRH signaling and consequent elevation of circulating LH. Thus, a castrated rat model is used to provide a broad index for measurement of LH inhibition as a marker of test compound inhibition of the GnRH signaling pathway.
Castrated adult male Sprague-Dawley (SD) rats (150-175 g,) were purchased from Janvier (St Berthevin, France). All animals were housed 2 per cage in a temperature-controlled room (22±2° C.) and 50±5% relative humidity with a 12 hour/12 hour light/dark cycles (lights off at […]). The animals were allowed 3 weeks of postoperative recovery prior to study. Animals were handled on a daily basis. Standard diet and tap water were provided ad libitum. Animal cage litters were changed once a week. On the study day, animals were acclimated to the procedure room for a period of one hour prior to the initiation of the experiment.
Compounds of the invention were formulated in 0.5% methyl cellulose.
After basal sampling (TO) a single dose of compounds of the invention or vehicle was administrated orally to rats. Blood samples were then collected at several time points post dosing (45, 90, 150, 300 and 420 minutes). Blood samples were obtained via tail vein bleed, drawn into EDTA-containing tubes and centrifuged immediately. Plasma samples were collected and stored in a −80° C. freezer until assayed. Serum LH levels were determined using radioimmunoassay kit from RIAZEN—Rat L H, Zentech (Liege, Belgium). Baseline was defined as the initial basal blood sample.

[4] = Table 2, 5 nM 3H-SB222200, CHO membranes, read-out: Competitive binding assay with human NK-3 receptor hNK-3 (Ki)
[5] = Table 3 (selectivity table), read-out: hNK-3 (Ki)

human NK-2 receptor, sequence (P21452 whole entry): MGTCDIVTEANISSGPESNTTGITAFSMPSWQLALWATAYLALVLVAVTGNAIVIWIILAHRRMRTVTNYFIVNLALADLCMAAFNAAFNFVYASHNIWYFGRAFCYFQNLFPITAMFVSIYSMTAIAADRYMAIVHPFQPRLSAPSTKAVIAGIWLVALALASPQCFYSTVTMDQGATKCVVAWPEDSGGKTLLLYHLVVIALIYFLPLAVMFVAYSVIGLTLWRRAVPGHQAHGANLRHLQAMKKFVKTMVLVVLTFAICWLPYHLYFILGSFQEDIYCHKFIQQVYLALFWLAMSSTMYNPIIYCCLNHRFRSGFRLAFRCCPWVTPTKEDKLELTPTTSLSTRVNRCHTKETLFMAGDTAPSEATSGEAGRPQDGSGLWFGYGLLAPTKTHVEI
T1 sequence (P29371 whole entry): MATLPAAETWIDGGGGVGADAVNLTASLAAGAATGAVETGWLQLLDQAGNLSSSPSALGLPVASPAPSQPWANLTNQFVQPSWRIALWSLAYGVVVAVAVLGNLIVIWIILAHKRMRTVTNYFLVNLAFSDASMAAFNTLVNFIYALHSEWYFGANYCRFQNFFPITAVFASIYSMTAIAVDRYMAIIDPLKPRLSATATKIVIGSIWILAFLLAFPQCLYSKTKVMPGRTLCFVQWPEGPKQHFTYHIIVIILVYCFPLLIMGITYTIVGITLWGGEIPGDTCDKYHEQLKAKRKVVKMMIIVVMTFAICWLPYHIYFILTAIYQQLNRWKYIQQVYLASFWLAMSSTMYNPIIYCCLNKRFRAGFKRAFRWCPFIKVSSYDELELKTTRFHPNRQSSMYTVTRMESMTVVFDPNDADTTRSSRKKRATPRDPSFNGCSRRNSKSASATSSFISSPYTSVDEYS
human NK-1 receptor, sequence (P25103 whole entry): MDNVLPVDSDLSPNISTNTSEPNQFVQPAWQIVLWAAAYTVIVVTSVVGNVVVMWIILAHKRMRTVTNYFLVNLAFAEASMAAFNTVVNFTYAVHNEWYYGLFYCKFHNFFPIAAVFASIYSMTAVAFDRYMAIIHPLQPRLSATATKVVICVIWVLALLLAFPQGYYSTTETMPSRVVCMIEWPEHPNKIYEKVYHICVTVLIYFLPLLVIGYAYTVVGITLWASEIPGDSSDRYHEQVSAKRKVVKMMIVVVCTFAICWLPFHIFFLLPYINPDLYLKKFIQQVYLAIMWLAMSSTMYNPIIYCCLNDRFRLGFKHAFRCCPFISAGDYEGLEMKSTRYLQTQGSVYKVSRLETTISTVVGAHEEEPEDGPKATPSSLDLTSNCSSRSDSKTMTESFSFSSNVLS

Structure (SMILES)	pIC50 (human NK-3 receptor [1])	pKi (human NK-3 receptor [2]; [4])	pKi (human NK-3 receptor [2]; [5])	pKi (human NK-1 receptor)	pKi (human NK-2 receptor)	Exposure (% rPPB), bound drug fraction to plasma protein (plasma protein) [%]	circulating LH levels [3]
Cc1nsc(-c2nnc3n2CCN(C(=O)c2ccc(Cl)c(F)c2)[C@@H]3C)n1 [Compound 4, (R)-(4-chloro-3-fluorophenyl)(8-methyl-3-(3-methyl-1,2,4-thiadiazol-5-yl)-5,6-dihydro-[1,2,4]triazolo[4,3-a]pyrazin-7(8H)-yl)methanone]	7.72	7.70	7.70	4.70	4.64	40	significantly suppressed
Cc1nsc(-c2nnc3n2CCN(C(=O)c2ccccc2)[C@@H]3C)n1 [Compound 20, (R)-(8-methyl-3-(3-methyl-1,2,4-thiadiazol-5-yl)-5,6-dihydro-[1,2,4]triazolo[4,3-a]pyrazin-7(8H)-yl)(phenyl)methanone]	7.03	7.22	7.22	< 4.52	< 4.52	–	significantly suppressed
Cc1nsc(-c2nnc3n2CCN(C(=O)c2ccc(F)c(F)c2)[C@@H]3C)n1 [Compound 9, (R)-(3,4-difluorophenyl)(8-methyl-3-(3-methyl-1,2,4-thiadiazol-5-yl)-5,6-dihydro-[1,2,4]triazolo[4,3-a]pyrazin-7(8H)-yl)methanone]	7.68	7.52	7.52	< 4.52	< 4.52	22	significantly suppressed
CCc1noc(-c2nnc3n2CCN(C(=O)c2ccc(-c4cccs4)cc2)[C@@H]3C)n1 [Compound 30, (R)-(3-(3-ethyl-1,2,4-oxadiazol-5-yl)-8-methyl-5,6-dihydro-[1,2,4]triazolo[4,3-a]pyrazin-7(8H)-yl)(4-(thiophen-2-yl)phenyl)methanone]	8.30	8.15	8.15	4.40	–	94	significantly suppressed
Cc1nsc(-c2nnc3n2CCN(C(=O)c2cc(F)c(F)c(F)c2F)[C@@H]3C)n1 [Compound 10, (R)-(8-methyl-3-(3-methyl-1,2,4-thiadiazol-5-yl)-5,6-dihydro-[1,2,4]triazolo[4,3-a]pyrazin-7(8H)-yl)(2,3,4,5-tetrafluorophenyl)methanone]	7.25	7.51	7.51	< 4.52	4.31	30	–
CC[C@@H]1c2nnc(-c3nc(C)ns3)n2CCN1C(=O)c1ccc(F)cc1 [Compound 22, (R)-(8-ethyl-3-(3-methyl-1,2,4-thiadiazol-5-yl)-5,6-dihydro-[1,2,4]triazolo[4,3-a]pyrazin-7(8H)-yl)(4-fluorophenyl)methanone]	6.89	7.16	7.16	< 4.52	< 4.52	27	–
CCc1noc(-c2nnc3n2CCN(C(=O)c2ccc(F)cc2)C3C)n1 (racemic) [Compound 40, (3-(3-ethyl-1,2,4-oxadiazol-5-yl)-8-methyl-5,6-dihydro-[1,2,4]triazolo[4,3-a]pyrazin-7(8H)-yl)(4-fluorophenyl)methanone]	6.89	7.08	7.08	< 4.52	< 4.52	24	–
C[C@@H]1c2nnc(-c3nc(C(C)(F)F)no3)n2CCN1C(=O)c1ccc(F)cc1 [Compound 43, (R)-(3-(3-(1,1-difluoroethyl)-1,2,4-oxadiazol-5-yl)-8-methyl-5,6-dihydro-[1,2,4]triazolo[4,3-a]pyrazin-7(8H)-yl)(4-fluorophenyl)methanone]	6.87	7.23	7.23	< 4.52	< 4.52	47	–
Cc1nsc(-c2nnc3n2CCN(C(=O)c2ccc(F)cc2F)[C@@H]3C)n1 [Compound 18, (R)-(2,4-difluorophenyl)(8-methyl-3-(3-methyl-1,2,4-thiadiazol-5-yl)-5,6-dihydro-[1,2,4]triazolo[4,3-a]pyrazin-7(8H)-yl)methanone]	7.06	7.27	7.27	< 4.52	< 4.52	23	–
C[C@@H]1c2nnc(-c3nc(C(F)F)ns3)n2CCN1C(=O)c1ccc(F)cc1 [Compound 42, (R)-(3-(3-(difluoromethyl)-1,2,4-thiadiazol-5-yl)-8-methyl-5,6-dihydro-[1,2,4]triazolo[4,3-a]pyrazin-7(8H)-yl)(4-fluorophenyl)methanone]	7.41	7.32	7.32	< 4.52	< 4.52	16	–
CC(F)c1noc(-c2nnc3n2CCN(C(=O)c2ccc(F)cc2)[C@@H]3C)n1 (stereo partly drawn) [Compound 45, ((8R)-3-(3-(1-fluoroethyl)-1,2,4-oxadiazol-5-yl)-8-methyl-5,6-dihydro-[1,2,4]triazolo[4,3-a]pyrazin-7(8H)-yl)(4-fluorophenyl)methanone]	6.61	7.00	7.00	< 4.52	< 4.52	31	–
